Values quoted from earlier work, collected in patent US20040110696A1, “GENE THERAPY SYSTEM AND METHOD USING ALPHA-MSH AND ITS DERIVATIVES” (priority 2003, published 2004).
Where no end group is shown, it is not given here.

Experiments:
[1] = system: fever; conditions: for antipyretic potency: relative to the α-MSH(11-13) sequence; for antipyretic activity: rabbit, in vivo
[2] = system: inflammation; conditions: for anti-inflammatory activity: in vitro and in vivo

Substance: 8-13 sequence: α-MSH fragment, residues 8-13 (RWGKPV; ends and bridges not checked; UniProt P01189 145-150, looked up, fragment)
- antipyretic potency [1]: greater than that of the 11-13 sequence

Substance: 9-13 sequence: α-MSH fragment, residues 9-13 (WGKPV; ends and bridges not checked; UniProt P01189 146-150, looked up, fragment)
- antipyretic potency [1]: almost devoid of activity

Substance: 10-13 sequence: α-MSH(11-13) with glycine added to form the 10-13 sequence (GKPV; ends and bridges not checked; UniProt P01189 147-150, looked up, fragment)
- antipyretic potency [1]: slightly decreased potency

Substance: Ac-[D-K11]-α-MSH 11-13-NH2
- general potency of α-MSH (11-13) stereochemical analogs ([2]; relative to L-form tripeptide, kind of activity not given, cited Hiltz 1991 anti-inflammatory activity): same general potency as the L-form

Substance: MEHFRWG [α-MSH sequence (4-10)]
- antipyretic activity [1]: little
- anti-inflammatory activity [2]: little

Substance: [Nle^4,D-Phe^7]-α-MSH
- potency in reducing fever ([1]; relative to the parent peptide α-MSH): approximately ten times more potent

Substance: lysine-proline-valine [KPV]
- antipyretic activity [1]: parallel those of the parent molecule
- anti-inflammatory activity [2]: parallel those of the parent molecule
